Data: patent publication US20220071960A1, “CANCER TREATMENTS” (IMPERIAL COLLEGE INNOVATIONS LIMITED, priority 2018, published 2022)

Tests used:
[1] = target: T1, human NMT1 (HsNMT1) (Homo sapiens, UniProt P30419); assay: HsNMT1 fluorescence-based assay (CoA detection by CPM); assay type: biochemical
T1 sequence (P30419 1-496): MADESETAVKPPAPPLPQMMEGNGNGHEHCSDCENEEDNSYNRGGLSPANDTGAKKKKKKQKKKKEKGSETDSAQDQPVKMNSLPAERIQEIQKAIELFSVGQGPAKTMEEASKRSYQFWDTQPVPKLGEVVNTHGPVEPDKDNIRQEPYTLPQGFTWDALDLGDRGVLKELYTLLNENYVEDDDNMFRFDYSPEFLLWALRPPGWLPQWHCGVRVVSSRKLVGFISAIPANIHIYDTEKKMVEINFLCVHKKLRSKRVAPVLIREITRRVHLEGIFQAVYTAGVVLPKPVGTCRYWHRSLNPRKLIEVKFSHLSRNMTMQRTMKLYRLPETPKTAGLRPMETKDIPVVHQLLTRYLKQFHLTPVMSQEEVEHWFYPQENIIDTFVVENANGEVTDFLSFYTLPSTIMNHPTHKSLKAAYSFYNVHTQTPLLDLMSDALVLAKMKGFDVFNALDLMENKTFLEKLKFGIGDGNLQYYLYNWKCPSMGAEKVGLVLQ
Description: The IC50 values for human NMT1 (HsNMT1) of Compounds 5 and 7 were measured using a sensitive fluorescence-based assay based on detection of CoA by 7-diethylamino-3-(4-maleimido-phenyl)-4-methylcoumarin, as described in Goncalves, V., et al., Analytical Biochemistry, 2012, 421, 342-344 and Goncalves, V., et al., J. Med. Chem, 2012, 55, 3578.

[2] = test system: MRC5 cells; assay: Metabolic activity assay (MTS assay); assay type: cell-based; details: Homo sapiens, MRC5 fibroblast cells, 72 h
Description: Compounds 5 and 7 were also tested for activity in an in vitro metabolic activity assay using the human cell line MRC5. Compounds having activity in inhibiting metabolic activity in the assay are expected to be useful as agents for preventing and/or treating cancer, by virtue of being inhibitors of human NMT1 and/or NMT2.
MRC5 cells (cell type: fibroblast cells) were grown in DMEM media (supplemented with 10% FBS) and were seeded in a 96-well plate, 24 h prior to treatment. Cell suspensions were prepared by adjusting the cell density to the appropriate concentration (as stated in the Table 1 below) and 50 μL of the cell suspension was transferred to wells B-G in columns 2-11 of a 96-well plate. […]
After 72 h, 20 μL MTS reagent (Promega, prepared according to the supplier protocol) was added to each well of the 96-well plate. The plate was incubated at 37° C. for 2 h and the absorbance per well was measured at 490 nm with an EnVision plate reader. The average absorbance value of the negative control (Puromycin-treated cells) was subtracted from each value and the metabolic activity was calculated as a percentage relative to the positive control (DMSO-treated cells). EC50 values were calculated using GraphPad.

[3] = test system: SKNAS-ER-N-MYC cell line; assay: Flow cytometry (cell number, caspase3, cell cycle), SKNAS-ER-N-MYC; assay type: cell-based, human; details: MYCN activated cells; FIG. 19
Description: (§1) Single-cell suspensions were stained with the following monoclonal antibody: α-Active Caspase3 (BD Biosciences, C92-605, 550821, PE) and c-Myc (Abeam, Y69, ab190560). To analyse DNA content, we stained with FxCycle Violet (ThermoFisher Scientific, F10347). To assess proliferation, we used the Click-iT EdU Alexa Fluor 488 Flow Cytometry Assay Kit (ThermoFisher Scientific, C10420) according to manufacturer's instructions. Zombie NIR (Biolegend, 423105) was used to exclude dead cells. The cells were fixed in a 4% solution of PFA, permeabilised with Cytofix/Cytoperm (BD Bioscience, 554714) and washed in Perm/Wash Buffer (BD Bioscience, 554723). Samples were acquired on a MACSQuant VYB (Miltenyi Biotec) and analysed using the FlowJo software (v10.4, Tree star).
(§2) The experiment was performed in a 24 well plate and in technical duplicate. On day 0, 7,800 cells/well for the Shep and 15,000 cells/well for the SKNAS were seeded in 500 μL media. On day 1, the media was removed and 600 μL of media with 100 nM of Tamoxifen, to induce N-Myc, or ethanol as control. On day 2, the respective concentrations of NMT inhibitor were added. After 6 hours, 24 hours, 48 hours and 72 hours the cells were treated according to the general procedures; however, all the media was collected to not loose apoptotic cells, and Trypsin (ThermoFisher Scientific, 25200056) was used to harvest the cells. […]

[4] = test system: P-493-6 cell line; assay: CellTiter Blue metabolic viability, P-493-6; assay type: cell-based
Description: The P-493-6 cell line is a non-transformed B cell line that can be genetically engineered to have either “low” levels of c-Myc, “medium” levels of c-Myc or “high” levels of c-Myc. The terms “low”, “medium” and “high” are descriptors commonly used in the art and will be readily understood to mean: • i) “low” levels of c-Myc-a level of MYC expression which represents non-proliferating normal cells (i.e. a level of MYC expression not sufficient to cause the cycling of the cells); • ii) “medium” levels of c-Myc-a level of MYC expression which represents normal proliferating cells; and • iii) ““high” levels of c-Myc-a level of MYC expression which represents enforced/deregulated expression of c-Myc, typically observed in cancerous cells. At the respective end points of the experiments 20 μL/well of the CellTiter Blue Assay (Promega, G8081) were added and the cells were incubated at 37° C. for 3 hours. The fluorescence was measured at 570 nm using an EnVisionTM plate reader. As a positive control, the highest DMSO concentration was added to the cells (usually 0.4% DMSO); as a negative control, the cells were treated with 10 μg/mL Puromycin and 1 uM Staurosporine (Merck, […] and […], respectively). The experiment was performed in a 96 well plate and in technical quadruplicate. […]

[5] = test system: SKNAS-ER-N-MYC cell line; assay: CellTiter Blue metabolic viability, SKNAS-ER-N-MYC; assay type: cell-based, human; details: 96 hours, with or without induction of MYCN
Description: (§3) In the experimental protocols described herein the SKNAS and Shep cell lines were genetically engineered to model differences between high grade neuroblastoma (which are usually marked by MYCN amplifications and with particular poor clinical prognosis) and low grade neuroblastoma. Accordingly, the SKNAS and/or Shep cell lines “with N-MYC induction” described herein will be understood to be cell lines treated with tamoxifen and represent aggressive, high grade type cancer cells. Conversely, the SKNAS and/or Shep cell lines “without N-MYC induction” described herein will be understood to be cell lines not treated with tamoxifen and represent less aggressive forms of cancer cells (Huang et al., Cold Spring Harb. Perspect. Med., 2013, 3(10), 1-22).
(§4) At the respective end points of the experiments 20 μL/well of the CellTiter Blue Assay (Promega, G8081) were added and the cells were incubated at 37° C. for 3 hours. The fluorescence was measured at 570 nm using an EnVision™ plate reader. As a positive control, the highest DMSO concentration was added to the cells (usually 0.4% DMSO); as a negative control, the cells were treated with 10 μg/mL Puromycin and 1 uM Staurosporine (Merck, P7255 and S4400, respectively).
The experiment was performed in a 48 well plate and in technical triplicate. On day 0, 5,500 cells/well were seeded in 200 μL media. […]

[6] = test system: Shep-ER-N-MYC cell line; assay: CellTiter Blue metabolic viability, Shep-ER-N-MYC; assay type: cell-based, human; details: 72 hours, with or without induction of MYCN
Description: as §3, §4
The experiment was performed in a 96 well plate and in technical quadruplicate. On day 0, 1,000 cells/well were seeded in 50 μL media. […]

[7] = test system: Shep-ER-N-MYC cell line; assay: Flow cytometry (cell number, caspase3, cell cycle), Shep-ER-N-MYC; assay type: cell-based, human
Description: as §1, §2

Row | IC50 [1] [nM] | Compound | EC50 [2] [nM] | cell cycling [3] | effect on cell viability ([4]; 10 nM, 72 hours, Myc high cell lines) | cell death depending on c-MYC level ([4]; 48 hours and 72 hours, c-MYC high, medium, low) | cell death with high versus low levels of MYCN [5] | cell death with high versus low levels of MYCN [6] | cell cycling ([7]; MYCN activated cells, FIG. 17) | cell cycling ([7]; cell line without activated MYCN)
1 | 0.4 | CNC(=O)c1nn(C)c(C)c1CCOc1cc(Cl)ccc1-c1ccc2ncc(CCN)n2c1 [Compound 7, 4-(2-{2-[3-(2-aminoethyl)imidazo[1,2-a]pyridin-6-yl]-5-chlorophenoxy}ethyl)-N,1,5-trimethyl-1H-pyrazole-3-carboxamide] | 37 |  |  |  |  |  |  | 
2 | 1.5 | Cc1c(CCOc2cc(Cl)ccc2-c2ccc3ncc(CCN)n3c2)c(C(=O)N(C)C)nn1C [Compound 5, 4-(2-{2-[3-(2-aminoethyl)imidazo[1,2-a]pyridin-6-yl]-5-chlorophenoxy}ethyl)-N,N,1,5-tetramethyl-1H-pyrazole-3-carboxamide] | 13 |  |  |  |  |  |  | 
3 |  | Cc1nn(C)c(C)c1CCOc1c(-c2ccc3c(c2)c(CN(C)C)nn3C)ccc(F)c1F [Compound 2, 1-(5-(3,4-difluoro-2-(2-(1,3,5-trimethyl-1H-pyrazol-4-yl)ethoxy)phenyl)-1-methyl-1H-indazol-3-yl)-N,N-dimethylmethanamine] |  | do not reduce their cycling | measurable effects on cell viability | clear MYC-dependent increase in cell death | increased cell death more rapidly at lower concentrations | increased cell death more rapidly at lower concentrations | do not reduce their cycling | stops cycling at 48 hours
